Laboratory results as given in patent publication US9522886B2, “Pyridine derivatives” (Hoffmann-La Roche Inc., priority 2012, dated 2016).
Structures can show the parent of a compound that is named as a salt. Where two headings read alike, the source gives them in different places.

How the values were obtained:
human CB2 receptors = human CB2 receptors (Homo sapiens (Human), UniProt P34972); experiment: cAMP assay, CHO cells expressing human CB2 receptors; type: cell-based
Experimental: (§1) CHO cells expressing human CB1 or CB2 receptors are seeded 17-24 hours prior to the experiment 50.000 cells per well in a black 96 well plate with flat clear bottom (Corning Costar #3904) in DMEM (Invitrogen No. 31331), 1×HT supplement, with 10% fetal calf serum and incubated at 5% CO2 and 37° C. in a humidified incubator. The growth medium was exchanged with Krebs Ringer Bicarbonate buffer with 1 mM IBMX and incubated at 30° C. for 30 min. Compounds were added to a final assay volume of 100 μl and incubated for 30 min at 30° C. Using the cAMP-Nano-TRF detection kit the assay (Roche Diagnostics) was stopped by the addition of 50 μl lysis reagent (Tris, NaCl, 1.5% Triton X100, 2.5% NP40, 10% NaN3) and 50 μl detection solutions (20 μM mAb Alexa700-cAMP 1:1, and 48 μM Ruthenium-2-AHA-cAMP) and shaken for 2 h at room temperature. The time-resolved energy transfer is measured by a TRF reader (Evotec Technologies GmbH), equipped with a ND:YAG laser as excitation source. The plate is measured twice with the excitation at 355 nm and at the emission with a delay of 100 ns and a gate of 100 ns, total exposure time 10 s at 730 (bandwidth 30 nm) or 645 nm (bandwidth 75 nm), respectively.
(§2) EC50 values were determined using Activity Base analysis (ID Business Solution, Limited).

human CB1 receptors = human CB1 receptors (Homo sapiens (Human), UniProt P21554); experiment: cAMP assay, CHO cells expressing human CB1 receptors; type: cell-based
Experimental: as §1, §2

[1] = functional cAMP assay, CHO cells expressing human CB2, read-out: human CB2 EC50
[2] = functional cAMP assay, CHO cells expressing human CB1, read-out: human CB1 EC50

Sequence of human CB1 receptors (P21554 whole entry): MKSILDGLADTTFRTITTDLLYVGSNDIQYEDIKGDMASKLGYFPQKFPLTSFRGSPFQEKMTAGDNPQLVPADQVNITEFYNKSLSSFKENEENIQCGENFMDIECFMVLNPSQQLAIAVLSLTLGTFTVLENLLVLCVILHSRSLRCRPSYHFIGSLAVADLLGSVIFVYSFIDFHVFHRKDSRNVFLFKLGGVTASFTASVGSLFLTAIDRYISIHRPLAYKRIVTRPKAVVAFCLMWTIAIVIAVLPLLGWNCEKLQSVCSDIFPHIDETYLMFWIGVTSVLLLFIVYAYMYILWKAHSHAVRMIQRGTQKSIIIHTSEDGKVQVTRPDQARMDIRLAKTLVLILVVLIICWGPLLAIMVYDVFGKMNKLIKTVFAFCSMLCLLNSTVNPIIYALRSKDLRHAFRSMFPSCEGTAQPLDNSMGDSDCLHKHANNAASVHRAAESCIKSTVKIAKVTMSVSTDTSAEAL
Sequence of human CB2 receptors (P34972 whole entry): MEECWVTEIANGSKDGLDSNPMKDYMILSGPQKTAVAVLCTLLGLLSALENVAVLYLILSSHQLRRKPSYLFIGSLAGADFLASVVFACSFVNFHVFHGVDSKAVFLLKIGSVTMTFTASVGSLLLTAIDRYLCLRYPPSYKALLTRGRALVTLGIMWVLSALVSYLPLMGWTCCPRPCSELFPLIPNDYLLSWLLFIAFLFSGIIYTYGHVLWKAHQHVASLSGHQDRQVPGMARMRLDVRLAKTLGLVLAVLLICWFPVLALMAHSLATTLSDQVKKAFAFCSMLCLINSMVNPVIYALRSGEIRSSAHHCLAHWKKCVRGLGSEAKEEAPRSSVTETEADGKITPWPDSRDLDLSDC

Structure (SMILES)	EC50 (human CB2 receptors; [1]) [nM]	EC50 (human CB1 receptors; [2]) [nM]	EC50 (human CB2 receptors) [nM]	EC50 (human CB1 receptors) [nM]
COC(=O)CC1(NC(=O)c2ccc(N3CC(F)(F)C3)c(OCC3CC3)n2)CCOCC1 [Example 52, (4-{[6-Cyclopropylmethoxy-5-(3,3-difluoro-azetidin-1-yl)-pyridine-2-carbonyl]-amino}-tetrahydro-pyran-4-yl)-acetic acid methyl ester]	74.9	> 10000	–	–
NC(=O)CC1(NC(=O)c2ccc(N3CC(F)(F)C3)c(OCC3CC3)n2)CNC(=O)C1 (stereo not drawn) [Example 54, 6-Cyclopropylmethoxy-5-(3,3-difluoro-azetidin-1-yl)-pyridine-2-carboxylic acid (3-carbamoylmethyl-5-oxo-pyrrolidin-3-yl)-amide]	55	> 10000	–	–
NC(=O)CC(NC(=O)c1ccc(N2CC(F)(F)C2)c(OCC2CC2)n1)C(F)(F)F (stereo not drawn) [Example 55, 6-Cyclopropylmethoxy-5-(3,3-difluoro-azetidin-1-yl)-pyridine-2-carboxylic acid (1-carbamoylmethyl-2,2,2-trifluoro-ethyl)-amide]	3	> 10000	–	–
O=C(O)CC1(NC(=O)c2ccc(N3CC(F)(F)C3)c(OCC3CC3)n2)CS(=O)(=O)C1 [Example 56, (3-{[6-Cyclopropylmethoxy-5-(3,3-difluoro-azetidin-1-yl)-pyridine-2-carbonyl]-amino}-1,1-dioxo-1λ6-thietan-3-yl)-acetic acid]	3	> 10000	–	–
O=C(O)CC1(NC(=O)c2ccc(N3CC(F)(F)C3)c(OCC3CC3)n2)CCOCC1 [Example 57, (4-{[6-Cyclopropylmethoxy-5-(3,3-difluoro-azetidin-1-yl)-pyridine-2-carbonyl]-amino}-tetrahydro-pyran-4-yl)-acetic acid]	3	> 10000	–	–
NC(=O)CC1(NC(=O)c2ccc(N3CC(F)(F)C3)c(OCC3CC3)n2)CCOCC1 [Example 60, 6-Cyclopropylmethoxy-5-(3,3-difluoro-azetidin-1-yl)-pyridine-2-carboxylic acid (4-carbamoylmethyl-tetrahydro-pyran-4-yl)-amide]	2.6	> 10000	–	–
NC(=O)CC1(NC(=O)c2ccc(N3CC(F)(F)C3)c(OCC3CC3)n2)CS(=O)(=O)C1 [Example 61, 6-Cyclopropylmethoxy-5-(3,3-difluoro-azetidin-1-yl)-pyridine-2-carboxylic acid (3-carbamoylmethyl-1,1-dioxo-1λ6-thietan-3-yl)-amide]	1	7750	–	–
NC(=O)CC1(NC(=O)c2ccc(N3CC(F)(F)C3)c(OCC3CC3)n2)CCSCC1 [Example 62, 6-Cyclopropylmethoxy-5-(3,3-difluoro-azetidin-1-yl)-pyridine-2-carboxylic acid (4-carbamoylmethyl-tetrahydro-thiopyran-4-yl)-amide]	2.5	> 10000	–	–
NC(=O)CC1(NC(=O)c2ccc(N3CC(F)(F)C3)c(OCC3CC3)n2)CCS(=O)(=O)CC1 [Example 63, N-[4-(2-Amino-2-oxoethyl)-1,1-dioxothian-4-yl]-6-(cyclopropylmethoxy)-5-(3,3-difluoroazetidin-1-yl)pyridine-2-carboxamide]	55.5	> 10000	–	–
NC(=O)CC(NC(=O)c1ccc(C2CC2)c(OCC2CC2)n1)C1CCOC1 (stereo not drawn) [Example 64, N-[3-Amino-3-oxo-1-(oxolan-3-yl)propyl]-5-cyclopropyl-6-(cyclopropylmethoxy)pyridine-2-carboxamide]	5.2	> 10000	–	–
NC(=O)CC1(NC(=O)c2ccc(N3CC(F)(F)C3)c(OCC3CC3)n2)CNC1 [Example 65, N-[3-(2-Amino-2-oxoethyl)azetidin-3-yl]-6-(cyclopropylmethoxy)-5-(3,3-difluoroazetidin-1-yl)pyridine-2-carboxamide]	443	> 10000	–	–
NC(=O)CC1(NC(=O)c2ccc(C3CC3)c(Cc3ccc(F)cc3)n2)CCNCC1 [Example 66, N-[4-(2-Amino-2-oxoethyl)piperidin-4-yl]-5-cyclopropyl-6-[(4-fluorophenyl)methyl]pyridine-2-carboxamide; hydrochloride]	1.3	> 10000	–	–
NC(=O)CC(NC(=O)c1ccc(N2CC(F)(F)C2)c(OCC2CC2)n1)C1CCOC1 (stereo not drawn) [Example 67, N-[3-Amino-3-oxo-1-(oxolan-3-yl)propyl]-6-(cyclopropylmethoxy)-5-(3,3-difluoroazetidin-1-yl)pyridine-2-carboxamide]	8.3	> 10000	–	–
COC(=O)CC1(NC(=O)c2ccc(N3CC(F)(F)C3)c(OCC3CC3)n2)CCC1 [Example 68, Methyl 2-[1-[[6-(cyclopropylmethoxy)-5-(3,3-difluoroazetidin-1-yl)pyridine-2-carbonyl]amino]cyclobutyl]acetate]	1.1	> 10000	–	–
O=C(O)CC1(NC(=O)c2ccc(N3CC(F)(F)C3)c(OCC3CC3)n2)CCC1 [Example 69, 2-[1-[[6-(Cyclopropylmethoxy)-5-(3,3-difluoroazetidin-1-yl)pyridine-2-carbonyl]amino]cyclobutyl]acetic acid]	302	> 10000	–	–
NC(=O)CC1(NC(=O)c2ccc(N3CC(F)(F)C3)c(OCC3CC3)n2)CCC1 [Example 70, N-[1-(2-Amino-2-oxoethyl)cyclobutyl]-6-(cyclopropylmethoxy)-5-(3,3-difluoroazetidin-1-yl)pyridine-2-carboxamide]	0.6	> 10000	–	–
CCOC(=O)C1(CNC(=O)c2ccc(N3CC(F)(F)C3)c(OCC3CC3)n2)CC1 [Example 71, Ethyl 1-[[[6-(cyclopropylmethoxy)-5-(3,3-difluoroazetidin-1-yl)pyridine-2-carbonyl]amino]methyl]cyclopropane-1-carboxylate]	60.6	> 10000	–	–
CC(=O)N1CCC(CC(N)=O)(NC(=O)c2ccc(C3CC3)c(Cc3ccc(F)cc3)n2)CC1 [Example 72, N-[1-Acetyl-4-(2-amino-2-oxoethyl)piperidin-4-yl]-5-cyclopropyl-6-[(4-fluorophenyl)methyl]pyridine-2-carboxamide]	5	> 10000	–	–
CC(=O)N1CC(CC(N)=O)(NC(=O)c2ccc(N3CC(F)(F)C3)c(OCC3CC3)n2)C1 [Example 73, N-[1-Acetyl-3-(2-amino-2-oxoethyl)azetidin-3-yl]-6-(cyclopropylmethoxy)-5-(3,3-difluoroazetidin-1-yl)pyridine-2-carboxamide]	120	> 10000	–	–
NC(=O)CC1(NC(=O)c2ccc(C3CC3)c(Cc3ccc(F)cc3)n2)CN(C(=O)OCc2ccccc2)C1 [Example 74, Benzyl 3-(2-amino-2-oxoethyl)-3-[[5-cyclopropyl-6-[(4-fluorophenyl)methyl]pyridine-2-carbonyl]amino]azetidine-1-carboxylate]	39	> 10000	–	–
CC(C)CSc1nc(C(=O)NC2(CC(N)=O)CS(=O)(=O)C2)ccc1C1CC1 [Example 75, N-[3-(2-Amino-2-oxoethyl)-1,1-dioxothietan-3-yl]-5-cyclopropyl-6-(2-methylpropylsulfanyl)pyridine-2-carboxamide]	15.8	> 10000	–	–
NC(=O)CC1(NC(=O)c2ccc(C3CC3)c(OCC3CC3)n2)CS(=O)(=O)C1 [Example 77, N-[3-(2-Amino-2-oxoethyl)-1,1-dioxothietan-3-yl]-5-cyclopropyl-6-(cyclopropylmethoxy)pyridine-2-carboxamide]	0.7	> 10000	–	–
NC(=O)CC1(NC(=O)c2ccc(C(F)(F)F)c(OCC3CCOCC3)n2)CS(=O)(=O)C1 [Example 78, N-[3-(2-Amino-2-oxoethyl)-1,1-dioxothietan-3-yl]-6-(oxan-4-ylmethoxy)-5-(trifluoromethyl)pyridine-2-carboxamide]	41	> 10000	–	–
NC(=O)CC1(NC(=O)c2cccc(-c3ccc(F)c(Cl)c3)n2)CS(=O)(=O)C1 [Example 79, N-[3-(2-Amino-2-oxoethyl)-1,1-dioxothietan-3-yl]-6-(3-chloro-4-fluorophenyl)pyridine-2-carboxamide]	74.7	> 10000	–	–
NC(=O)CC1(NC(=O)c2ccc(C3CC3)c(OCC3CCCO3)n2)CS(=O)(=O)C1 (stereo not drawn) [Example 80, N-[3-(2-Amino-2-oxoethyl)-1,1-dioxothietan-3-yl]-5-cyclopropyl-6-(oxolan-2-ylmethoxy)pyridine-2-carboxamide]	2.4	> 10000	–	–
NC(=O)CC1(NC(=O)c2ccc(C3CC3)c(Cc3ccc(F)cc3)n2)CNC1 [Example 81, N-[3-(2-Amino-2-oxoethyl)azetidin-3-yl]-5-cyclopropyl-6-[(4-fluorophenyl)methyl]pyridine-2-carboxamide]	–	–	15	> 10000
NC(=O)CC1(NC(=O)c2ccc(N3CC(F)(F)C3)c(OCC3CC3)n2)CCOC1 (stereo not drawn) [Example 82, N-[3-(2-Amino-2-oxoethyl)oxolan-3-yl]-6-(cyclopropylmethoxy)-5-(3,3-difluoroazetidin-1-yl)pyridine-2-carboxamide]	1.5	> 10000	–	–
